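1) Cells in 96-well plates. 2) Compound, 48 h, 5 concentrations. 3) Linear interpolation between surrounding doses. 4) Unreached endpoint = highest concentration. At the TGI there is no net growth.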 A value given as a limit tells only on which side of the number the result lay.

Some test systems named below: A498 renal; COLO 205 colon; HCT-116 colon; HL-60(TB) leukemia; HOP-62 NSCLC; IGROV1 ovarian; K-562 leukemia; MCF7 breast; NCI-H226 lung; NCI-H460 lung; NCI-H522 lung; OVCAR-4 ovarian; OVCAR-8 ovarian; SF-539 CNS; SK-MEL-28 melanoma; SK-OV-3 ovarian; SN12C renal; SW-620 colon; U251 CNS; UACC-257 melanoma.
Holding throughout (test): NCI-60 cell line screen, 48 h

In the case of `O=C(NCCCCCCNC(=O)n1cc(F)c(=O)[nH]c1=O)NCCCOCCOCCCNC(=O)C(O)C(O)C(O)C(O)CO` (stereo not given), the TGI in the assay on A498 renal, in the assay on COLO 205 colon, in the assay with HCT-116 colon, with HL-60(TB) leukemia, with HOP-62 NSCLC and in the assay on IGROV1 ovarian was more than 2.5 µM in each case. The TGI in the assay with K-562 leukemia, in the assay with MCF7 breast, in the assay with NCI-H226 lung, in the assay on NCI-H460 lung, in the assay with NCI-H522 lung and with OVCAR-4 ovarian was more than 2.5 µM in each case. For the same compound, the TGI in the assay with OVCAR-8 ovarian, in the assay with SF-539 CNS, in the assay with SK-MEL-28 melanoma, in the assay on SK-OV-3 ovarian, in the assay on SN12C renal and with SW-620 colon was more than 2.5 µM throughout. Further, the TGI in the assay on U251 CNS and with UACC-257 melanoma was more than 2.5 µM throughout.

For the compound `CCOC(=O)c1sc2nc(SC)nc3c2c1NC(=O)CN3c1cccc(F)c1`, the TGI in the assay on A498 renal is 43.1 µM; in the assay on COLO 205 colon, more than 100 µM; with HCT-116 colon, 53 µM; in the assay with HL-60(TB) leukemia, 24.4 µM; in the assay on HOP-62 NSCLC, 28.3 µM; with IGROV1 ovarian, more than 100 µM. Moreover, the TGI with K-562 leukemia is 93.3 µM; in the assay on MCF7 breast it was more than 100 µM; with NCI-H226 lung, 31.7 µM; in the assay with NCI-H460 lung, more than 100 µM; in the assay on NCI-H522 lung, more than 100 µM; in the assay on OVCAR-4 ovarian it was 42 µM. Besides, the TGI in the assay on OVCAR-8 ovarian is 30.6 µM; in the assay on SF-539 CNS, 15.7 µM; in the assay on SK-MEL-28 melanoma, 22.9 µM; in the assay on SK-OV-3 ovarian, 37.4 µM; in the assay on SN12C renal, 35.5 µM; with SW-620 colon, more than 100 µM. The TGI in the assay on U251 CNS is 31.9 µM; with UACC-257 melanoma, more than 100 µM.

These data come from PubChem BioAssay (NCI).
